Test results from patent US10736902B2, “Method of treating triple negative breast cancer” (GEISTLICH PHARMA AG, priority 2016, dated 2020).
Like-named read-outs stand apart in the source and are kept apart here.

Tests used:
[1] = system: ER negative breast cancer cells (BT-20 and MDA-MB-231) and ER positive cells (BT-474 and MCF-7); assay: Apoptosis/necrosis (annexin V / propidium iodide) and ROS in breast cancer cells; format: cell-based; conditions: for dose dependence of cell death: ER-positive and ER-negative breast cancer cells, increasing concentrations, most pronounced with TNBC cells; for generation of ROS: substantially reduced by NAC, significantly increased with BSO
Experimental: Methods: Primary and metastatic ER negative breast cancer cells (BT-20 and MDA-MB-231) and ER positive cells (BT-474 and MCF-7) were separately treated with increasing concentrations of Taurolidine and 2250 as shown in FIG. 7A and FIG. 8A. Apoptosis and necrosis were evaluated based on phosphatidylserine externalization using annexin V and propidium iodide (PI). The contribution of caspases 3, 8 and 9 on apoptosis, and autophagy was evaluated by both flow cytometry and western blotting. The impact of reactive oxygen species (ROS) was evaluated using the radical scavenger agent n-acetylcysteine (NAC) and buthionine-sulfoximine (BSO), a glutathione-depleting agent. Necroptosis was evaluated using nescrostatin-1, a potent inhibitor of the process.

[2] = Half-life in human fresh blood at 37° C.; format: in vitro ADME; conditions: for half-life: human, fresh whole blood
Experimental: The half-life of 2250 was measured in human fresh blood at 37° C.

[3] = system: tumor stem cells; assay: Tumor stem cell killing in tissue culture in vitro; format: cell-based
[4] = system: human peripheral blood monocytes; assay: Safety in non-neoplastic cells: cell death of monocytes; format: cell-based; conditions: for cell death in human peripheral blood monocytes: 100 microMol up to 5000 microMol; for effect on peripherally derived human monocytes: high doses (5 mM), after 24 hours (FIG. 7B)
[5] = Water solubility / isotonicity; format: physicochemical
[6] = Wound healing after administration during or after surgery; conditions: administered during surgery and immediately after surgery

O=S1(=O)CCN(CN2CCS(=O)(=O)NC2)CN1 [taurolidine, reference compound]
dose dependence of cell death [1]: Dose-dependent increases in cell death
generation of ROS [1]: induced generation of ROS
half-life ([2]; human blood, same test, read-out: half-life in human blood): ~0.5 h
killing of tumor stem cells [3]: kill tumor stem cells
concentration effective at killing tumor stem cells ([3]; tissue culture in vitro): 0.01 µg/mL
cell death in human peripheral blood monocytes [4]: did not induce any significant cell death
effect on peripherally derived human monocytes [4]: no significant effect

O=S1(=O)CCNCN1 [taurultam]
killing of tumor stem cells [3]: kill tumor stem cells

O=S1(=O)CCOCN1 [C-2250, Tetrahydro1,4,5-oxathiazin-4-dioxide]
dose dependence of cell death [1]: Dose-dependent increases in cell death
generation of ROS [1]: induced generation of ROS
solubility in water ([5]; no PVP necessary): very soluble in water
concentration of isotonic solution ([5]; solution): 3.2%
Concentration of 2250 measured ([2]; human fresh blood, 37° C., 0-1 hours): 50 ppm
Concentration of 2250 measured ([2]; human fresh blood, 37° C., 2 hours): 47.7 ppm
half-life ([2]; human blood, read-out: half-life in human blood): > 24 h
half-life ([2]; human fresh blood, 37° C., calculated from measured concentrations, read-out: half-life (calculated) (converted)): ~40 h
effect on wound healing [6]: do not hinder wound healing
cell death in human peripheral blood monocytes [4]: did not induce any significant cell death
effect on peripherally derived human monocytes [4]: no significant effect
